For one assay, the system named is HepG2 cells. Nature of the assay: Cytotoxicity evaluation (CellTiter 96 MTS). The assay is classed as cell-based, human. The following applies: Homo sapiens, HepG2; 24 h, cytotoxicity; read-out: IC50 HepG2. The protocol: Seven esters and their parent salicylanilides with the most robust antimicrobial activity were tested for cytotoxicity in the human hepatocellular liver carcinoma cell line HepG2 (passages 21–24; ECACC, Salisbury, UK) using a standard colorimetric method measuring a tetrazolium salt reduction (CellTiter(R) 96 AQueous One Solution Assay, Promega G3580, Madison, WI, USA).
The cells were routinely cultured in Minimum Essentials Eagle Medium (Sigma-Aldrich, Darmstadt, Germany) supplemented with 10% foetal bovine serum (PAA; Biotech, Prague, Czech Republic), 1% of L-glutamine solution (Sigma-Aldrich), and non-essential amino acids solution (Sigma-Aldrich) in a humidified atmosphere containing 5% CO2 at 37 °C. For subculturing, the cells were harvested after trypsin/EDTA (Sigma-Aldrich) treatment at 37 °C. The cells treated with the tested substances were used as experimental groups. Untreated HepG2 cells were used as control groups.
The cells were seeded in density 1 × 10^4 cells per well in a 96-well plate with microscopic control. Next day, the cells were treated with each of the tested substances. […] The most of the tested compounds were prepared in incubation concentrations of 0.01–20 µM in triplicates. 4-(Trifluoromethyl)benzoic acid was applied in the concentrations of 10–4,000 µM in triplicates. The following types of controls were included: determination of 100% viability and 0% viability (the cells treated by 10% DMSO), no cell control and vehiculum controls. These checking samples were prepared in triplicates.
The treated cells were incubated together with controls at 37 °C for 24 h in 5% CO2 atmosphere. After this time reagent from the kit CellTiter 96 AQueous One Solution Cell Proliferation Assay was added. The CellTiter 96 assay is based on the reduction of tetrazolium salt MTS [3-(4,5-dimethylthiazol-2-yl)-5-(3-carboxymethoxyphenyl)-2-(4-sulfophenyl)-2H-tetrazolium] to water-soluble formazan dye by metabolically active cells. The reduction of the reagent is attributed to availability of NADH or NADPH. The decline in levels of these metabolically important compounds in the cell causes that the production of formazan is reduced. The tested plate was incubated for 2 h at 37 °C and 5% CO2 and after this time, the absorbance was recorded at 490 nm using a 96-well plate reader (TECAN, Infinite M200, Grödig, Austria).
The results were expressed as inhibitory concentration which is necessary to inhibit cell viability to 50% from the maximal (control) viability (IC50). A standard toxicological parameter IC50 was calculated in each of the tested substances using GraphPad Prism software (version 5.02; GraphPad Software Inc., San Diego, CA, USA).

For assay [1], the system named is Mycobacterium kansasii 235/80. Kind of assay: Antimycobacterial MIC micromethod. The assay is classed as cell-based. Particulars: read-out: MIC M. kansasii 235/80.
Assay [2] concerns Mycobacterium tuberculosis 331/88 (H37Rv). Kind of assay: Antimycobacterial MIC micromethod, Šula's medium. It is filed as cell-based. The following applies: read-out: MIC Mtb. 331/88.
The target in assay [3] is T1, mycobacterial isocitrate lyase (ICL1, Rv0467) (Mycobacterium tuberculosis, UniProt P9WKK7).
T1 construct: His tag (from pET-28b(+)); made in house; host or cells: E. coli BL21(DE3), pET-28b(+) plasmid
T1 sequence (P9WKK7 1-428): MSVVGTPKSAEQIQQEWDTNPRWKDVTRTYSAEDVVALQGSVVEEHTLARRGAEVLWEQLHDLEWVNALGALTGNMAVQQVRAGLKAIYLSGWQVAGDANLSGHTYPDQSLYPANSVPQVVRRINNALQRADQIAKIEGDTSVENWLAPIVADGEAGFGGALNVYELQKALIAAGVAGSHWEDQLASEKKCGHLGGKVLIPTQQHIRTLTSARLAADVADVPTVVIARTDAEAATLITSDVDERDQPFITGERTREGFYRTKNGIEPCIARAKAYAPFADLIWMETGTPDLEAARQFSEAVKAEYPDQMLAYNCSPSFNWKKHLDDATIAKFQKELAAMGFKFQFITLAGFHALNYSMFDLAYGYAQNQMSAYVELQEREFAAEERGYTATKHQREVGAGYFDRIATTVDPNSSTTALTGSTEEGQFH
Kind of assay: Isocitrate lyase inhibition assay (ICL1). Particulars: 10 μmol/L; read-out: % ICL inhibition at 10 μmol/L (± standard deviation). The assay is classed as biochemical, Mycobacterium tuberculosis H37Rv.

For assay [4], the system named is Gram-positive cocci including MRSA. Nature of the assay: Antibacterial microdilution, summary for Gram-positive cocci. The following applies: Staphylococcus aureus, read-out: MICs against Gram-positive cocci. It is filed as cell-based. The protocol: (§1) The in vitro antibacterial activity was assayed against eight Gram-positive and Gram-negative strains: Staphylococcus aureus CCM 4516/08, methicillin-resistant Staphylococcus aureus H 5996/08 (MRSA), Staphylococcus epidermidis H 6966/08, Enterococcus sp. J 14365/08; Escherichia coli CCM 4517, Klebsiella pneumoniae D 11750/08, ESBL-positive Klebsiella pneumoniae J 14368/08, and Pseudomonas aeruginosa CCM 1961.
(§2) The microdilution broth method modified according to standard M07-A07 in Mueller-Hinton broth (HiMedia Laboratories, Mumbai, India) adjusted to pH 7.4 (±0.2) was used. The tested compounds were dissolved in DMSO to the final concentrations ranging from […]. Benzylpenicillin (penicillin G) was used as a comparative drug. Bacterial inoculum in sterile water was prepared to match 0.5 McFarland scale ([…]). The minimum inhibitory concentrations were assayed as 90% (IC90) or higher reduction of growth when compared to the control. The determination of results was performed visually and spectrophotometrically (at 540 nm). The values of MICs were determined after 24 and 48 h of incubation in the darkness at 35 °C (±0.1) in a humid atmosphere.

Assay [5] deals with Escherichia coli CCM 4517. Nature of the assay: Antibacterial microdilution broth method. The assay is classed as cell-based. How it is done: as §1, §2
Assay [6] relates to Enterococcus sp. J 14365/08. Kind of assay: Antibacterial microdilution broth method. It is filed as cell-based. Particulars: read-out: MIC/IC90 Enterococcus sp. J 14365/08. How it is done: as §1, §2
In assay [7] the test system is Staphylococcus epidermidis H 6966/08. Nature of the assay: Antibacterial microdilution broth method. It is filed as cell-based. The following applies: read-out: MIC/IC90 S. epidermidis H 6966/08. How it is done: as §1, §2
The test system of assay [8] is Staphylococcus aureus CCM 4516/08. Nature of the assay: Antibacterial microdilution broth method. The assay is classed as cell-based. The following applies: read-out: MIC/IC90 S. aureus CCM 4516/08. How it is done:
as §1, §2

Assay [9] relates to methicillin-resistant Staphylococcus aureus H 5996/08 (MRSA). Kind of assay: Antibacterial microdilution broth method. The assay is classed as cell-based. The following applies: read-out: MIC/IC90 MRSA H 5996/08. The protocol: as §1, §2
Assay [10] concerns M. kansasii 6509/96 (clinically isolated strain). Kind of assay: Antimycobacterial MIC micromethod. It is filed as cell-based. The following applies: Mycobacterium kansasii, read-out: MIC M. kansasii 6509/96.
Assay [11] relates to Mycobacterium avium 330/88. Nature of the assay: Antimycobacterial MIC micromethod. It is filed as cell-based.

Values after ≈ are worked out from the molar mass of the structure shown. Where two headings read alike, the source gives them in different places.

In the case of `O=C(Oc1cc(Cl)ccc1C(=O)Nc1ccc(C(F)(F)F)cc1)c1ccc(C(F)(F)F)cc1` [1p], in the assay on HepG2 cells, the IC50 is 1.77 µM. Further, the MIC in assay [1] (235/80, 168 h, 7 d) was 2 µM (≈ 0.976 µg/mL); in [1] (235/80, 336 h, 14 d) it was 2 µM (≈ 0.976 µg/mL); in assay [1] (235/80, 504 h, 21 d), 4 µM (≈ 1.95 µg/mL); in assay [2] (336 h, 14 d), 2 µM (≈ 0.976 µg/mL); in [2] (504 h, 21 d), 2 µM (≈ 0.976 µg/mL); in [4] it was less than 1 µM. For the same compound, the MIC in assay [5] (CCM4517, 24 h, read-out: MIC/IC90 E. coli CCM 4517) turned out to be 31.2 µM (≈ 15.2 µg/mL); in [5] (CCM4517, 48 h, read-out: MIC/IC90 E. coli CCM 4517), 250 µM (≈ 122 µg/mL); in assay [5] (CCM4517, time not stated, read-out: MIC E. coli (partial susceptibility)), 31.2 µM (≈ 15.2 µg/mL); in assay [6] (SP.J14365/08, 24 h), 0.49 µM (≈ 0.239 µg/mL); in assay [6] (SP.J14365/08, 48 h), 3.9 µM (≈ 1.9 µg/mL); in assay [7] (H6966/08, 24 h), 0.49 µM (≈ 0.239 µg/mL). For the same compound, the MIC in assay [7] (H6966/08, 48 h) was 0.98 µM (≈ 0.478 µg/mL); in [8] (CCM4516, 24 h), 0.49 µM (≈ 0.239 µg/mL); in [8] (CCM4516, 48 h) it was 0.98 µM (≈ 0.478 µg/mL); in [9] (24 h), 0.49 µM (≈ 0.239 µg/mL); in assay [9] (48 h), 0.98 µM (≈ 0.478 µg/mL); in assay [10] (168 h, 7 d) it was 1 µM (≈ 0.488 µg/mL). In addition, the MIC in assay [10] (336 h, 14 d) was found to be 4 µM (≈ 1.95 µg/mL); in assay [10] (504 h, 21 d) it was 4 µM (≈ 1.95 µg/mL); in assay [11] (330/88, 336 h, 14 d), 2 µM (≈ 0.976 µg/mL); in [11] (330/88, 504 h, 21 d), 8 µM (≈ 3.9 µg/mL). For the same compound, the inhibition at 10 µM in [3] turned out to be 17 ± 2.3%.
